The test system of this experiment is lysozyme. As to the kind of experiment: SPE protein-binding inhibition screening (Sep-Pak Accell Plus CM solid-phase extraction cartridge, absorbance of eluent at 280 nm). More on the design: species or system hen. The conditions noted are these: test compound 1% in BBS; then 0.05% lysozyme; corrected for BBS control. The source says:
In another aspect of the present invention, selected polyquaternium polymers simultaneously satisfy the dual requirements of both (i) meeting ophthalmological safety standards for an in-the-eye contact-lens solution at concentrations of 1000 ppm and (ii) inhibiting protein binding to a contact lens. The safety requirements can be determined according to the so-called NRDR (neutral red dye release) assay for cytotoxicity described in the Examples. In particular, the polyquaternium polymer should have an NRDR assay rating of L or less at a level of 1000 ppm., preferably L or less at a level of 500 ppm (dry weight of polymer, correcting for water content of the available polymer material). […] The material in this extraction cartridge is a weak cation exchanger that contains a silica support coated with a polymer having carboxymethyl groups. This extraction cartridge is first treated with a 1.0% solution of the polyquaternium polymer in borate-buffered saline followed by exposing the solid phase extraction cartridge to 0.05% lysozyme. The amount of protein-binding inhibition is determined compared to a control solution. […] Preferably, the SPE protein-binding inhibition is at least 20%, more preferably at least 30%, most preferably at least 35%.
This Experiment illustrates the measurement of the protein-displacing effects of various polyquaternium polymers. Among the polyquaternium polymers tested, the polymers varied with respect to the comonomers making up the polymer, the respective proportion of comonomers, and/or the molecular weight of the polymer. The following screening procedure was used. […] The absorbance measurements were conducted by (1) taking an initial absorbance with BBS in a 1 cm cuvette, which reading should be 0.000, re-autozeroing if necessary with BBS, (2) rinsing and filling the cuvette with 0.05% lysozyme solution and reading the absorbance to obtain the "maximum inhibition value', and (3) reading the absorbances for the solutions in the test tubes used to collect the eluents from the test cartridges. […]
Consider benzalkonium bromide [BAB], for which the “Average % SPE Binding Inhibition” value came to 8%.
The value for benzalkonium chloride [BAK] was 3%.
As for “lauryl methyl gluceth-10 hydroxy-propyl dimonium chloride [Gluquat® 125]”, the “Average % SPE Binding Inhibition” value stood at 2%.

Values taken from patent EP0920487B1, “COMPOSITION AND METHOD FOR INHIBITING THE DEPOSITION OF PROTEIN ON CONTACT LENS” (BAUSCH & LOMB INCORPORATED, priority 1996, dated 1997).
